In patent US20240091254A1, “WNT AGONISTS FOR PREVENTION OF CANCER” (ACADEMISH MEDISCH CENTRUM, priority 2021, published 2024):

Columns and labels:
[1] = system: Wnt pathway (TOP-GFP reporter); assay: TOP-GFP Wnt reporter assay in MEFs; format: cell-based, mouse
Description: Mouse embryonic fibroblasts (MEFs, ATCC) and HEK293T (ATCC) cells were both cultured in Dulbecco's Modified Eagle's Medium (DMEM) supplemented with 10% fetal calf serum (FCS), 1% Glutamine, and antibiotic penicillin and streptomycin. Cells were maintained at 37° C. in humidified air containing 5% CO2. All cell lines were routinely checked for mycoplasm contamination, no cell line authentication was performed.
Mouse embryonic fibroblasts (MEFs) were cultured in Dulbecco's Modified Eagle's Medium (DMEM) supplemented with 10% fetal calf serum (FCS), 1% Glutamine, and antibiotic penicillin and streptomycin. MEFs were stably transduced with Wnt reporter TOP-GFP (Addgene plasmid #35491). For TOP-GFP assays, cells were stimulated with Wnt3A conditioned medium for 24 hours after which GFP positivity was measured by flow cytometry.

WT organoids = assay: Murine WT intestinal organoids incubated with conditioned medium or recombinant Wnt antagonists (expansion, clonogenicity); format: cell-based, mouse; conditions: for Expansion and clonogenicity of WT organoids: overexpression CM or recombinant protein: NOTUM 2 μg/mL, WIF1 5 μg/mL, DKK2 1 μg/mL
Description: Murine intestinal crypts were isolated from Lgr5-EGFP-IRES-Cre^ERT2, Lgr5-EGFP-IRES-Cre^ERT2;Ape/or Villin-Cre^ERT2;Apc^fl/fl mice as described by Sato et al.^35. In short, intestines were removed from the mouse and washed thoroughly with ice-cold PBS. Next, the intestine was opened longitudinally and the villi were gently scraped off by a glass cover slide. The intestine was cut into pieces of 5×5 mm and incubated in 2 mM EDTA solution for 30 min. at 4° C. After removal of the EDTA, the crypts were resuspended in ice-cold 1% FCS in PBS by vigorously shaking the tube and passing the supernatant through a 70 µm strainer. Isolated crypts were resuspended in Matrigel® (Corning) and seeded in pre-heated 24-well plates, supplemented with basal organoid medium consisting of advanced DMEM/F12 medium (Gibco) containing 100× N2 and 50× B27 supplements, 100× Glutamax, 5 mM HEPES, 1 mM N-acetyl-L-cysteine (Sigma), and 100× antibiotic/antimycotic (all Gibco). The basal organoid medium was freshly supplemented with the following growth factors: mouse EGF 50 ng/ml (TEBU-BIO), R-spondin (conditioned medium), Noggin (conditioned medium). The first two days after crypt isolation CHIR99021 (Axon Medchem) and ROCK inhibitor (Sigma) was added to the medium. Ctnnb1^S organoids expressing a constitutive active variant of β-catenin were generated as described by Adam et al.^36. For in vitro recombination of loxP flanked alleles, 1 μM 40H-Tamoxifen (Sigma) was added to the medium. Recombination of the Apc gene was validated by digital droplet PCR (Bio-Rad) using EvaGreen® Supermix (Bio-Rad). Lgr5-EGFP-IRES-Cre^ERT2 organoids, referred to as wild type (WT) organoids, were stably transduced with a red fluorescent mCherry construct (LeGO-C2, Addgene #27399). The in vitro recombined Lgr5-EGFP-IRES-Cre^ERT2;Apc^fl/fl, referred to as Apc^−/−, were stably transduced with a green fluorescent Venus construct (LeGO-V2, Addgene #27340). During competition assays, organoids were plated in equal numbers in 24-well plates and full wells were scanned over time by the EVOS FL Cell Imaging System (Thermo Scientific). Conditioned medium (CM) was taken from 2-3 day old WT or Apc^−/− organoid cultures and freshly supplemented with growth factors R-spondin, Noggin and mEGF. During the competition assays the medium (normal and conditioned) was replaced every other day to minimize effects of medium depletion. To assess the effect of medium depletion, CM was 10× concentrated using 10 kDa Amicon® centrifugal filters (Millipore) and added to fresh ENR medium as 1:10. […] Recombinant proteins NOTUM (2 μg/mL, R&D, 9150-NO-050), WIF1 (5 μg/mL, R&D, 135-WF-050) and DKK2 (1 μg/mL, R&D, 2435-DKB-010) were freshly added to the culture medium, medium was refreshed every other day.

Molecule: Cc1c[nH]c(-c2cnc(NCCNc3ccc(C#N)cn3)nc2-c2ccc(Cl)cc2Cl)n1 [CHIR99021]
- Effect on Apc-/- CM reduction of Wnt3a mediated Wnt activation (TOP-GFP) ([1]; MEFs, TOP-GFP reporter, 2.5 μM CHIR99021): completely abrogated this effect
- Resistance to Apc-/- CM induced reduction in proliferation and clonogenicity (WT organoids; WT organoids, Apc-/- CM, 2.5 μM CHIR): resistant to the Apc^−/− CM induced reduction in proliferation and clonogenicity

Molecule: O=C([O-])[O-].[Li+].[Li+] [Li2CO3, lithium carbonate]
- Wnt signalling activation in Wnt reporter assay, Li2CO3 compared with LiCl ([1]; comparable concentrations (5 or 10 mM)): activated the same amount of Wnt signalling

Molecule: Cn1c(=O)c2c(ncn2C)n(C)c1=O [caffeine]
- Rescue of Notum-mediated inhibition of Wnt signalling in Wnt reporter assay ([1]; 200 μM caffeine): can rescue inhibition of Wnt singalling in vitro
- Clonogenic capacity of wild type intestinal organoids with Apc-mutant CM (WT organoids; Apc-mutant CM containing Notum, 200 μM caffeine): rescue in clonogenic capacity
- Clonogenic capacity of organoids with CM of Apc-mutant, Notum KO organoids (WT organoids; Apc-mutant Notum KO CM, 200 μM caffeine): no effect

Molecule: Wif1: Wnt antagonist Wnt inhibitory factor 1, as overexpression CM or recombinant protein
- Expansion and clonogenicity of WT organoids (WT organoids): ability to reduce expansion and clonogenicity of WT organoids

B1: Dkk2: Wnt antagonist Dickkopf-related protein 2, as overexpression CM or recombinant protein (protein, UniProt Q9UBU2 34-259, looked up)
Dickkopf-related protein 2: KLNSIKSSLGGETPGQAANRSAGMYQGLAFGGSKKGKNLGQAYPCSSDKECEVGRYCHSPHQGSSACMVCRRKKKRCHRDGMCCPSTRCNNGICIPVTESILTPHIPALDGTRHRDRNHGHYSNHDLGWQNLGRPHTKMSHIKGHEGDPCLRSSDCIEGFCCARHFWTKICKPVLHQGEVCTKQRKKGSHGLEIFQRCDCAKGLSCKVWKDATYSSKARLHVCQKI
- Expansion and clonogenicity of WT organoids (WT organoids): ability to reduce expansion and clonogenicity of WT organoids

B2: Notum: Wnt antagonist Palmitoleoyl-Protein Carboxylesterase, as overexpression CM or recombinant protein (protein, UniProt Q6P988 20-496, looked up)
Palmitoleoyl-protein …: SEGRKTWRRRGQQPPPPPRTEAAPAAGQPVESFPLDFTAVEGNMDSFMAQVKSLAQSLYPCSAQQLNEDLRLHLLLNTSVTCNDGSPAGYYLKESRGSRRWLLFLEGGWYCFNRENCDSRYDTMRRLMSSRDWPRTRTGTGILSSQPEENPYWWNANMVFIPYCSSDVWSGASSKSEKNEYAFMGALIIQEVVRELLGRGLSGAKVLLLAGSSAGGTGVLLNVDRVAEQLEKLGYPAIQVRGLADSGWFLDNKQYRHTDCVDTITCAPTEAIRRGIRYWNGVVPERCRRQFQEGEEWNCFFGYKVYPTLRCPVFVVQWLFDEAQLTVDNVHLTGQPVQEGLRLYIQNLGRELRHTLKDVPASFAPACLSHEIIIRSHWTDVQVKGTSLPRALHCWDRSLHDSHKASKTPLKGCPVHLVDSCPWPHCNPSCPTVRDQFTGQEMNVAQFLMHMGFDMQTVAQPQGLEPSELLGMLSNGS
- Expansion and clonogenicity of WT organoids (WT organoids): ability to reduce expansion and clonogenicity of WT organoids
